Measurements as given in patent US20250352577A1, “TUMOR NEOANTIGENIC PEPTIDES AND USES THEREOF” (MNEMO THERAPEUTICS, priority 2021, published 2025).
Entries after “also recorded” stand apart in the source; their conditions may differ.

T1: TE-exon fusion (JET / chimeric) transcript-derived peptide, LUAD (peptide 53) peptide on HLA-A*02:01 (human)
T1 peptide: MLVTWELAL

T2: TE-exon fusion (JET / chimeric) transcript-derived peptide, LUAD (peptide 17) peptide on HLA-A*02:01 (human)
T2 peptide: LLDRFGYHV


What was measured:
[1] = test system: CD8+ T cells from HLA-A2+ healthy donors; experiment: Priming of naive CTLs (immunogenicity assay) with two-colour tetramer staining; assay type: cell-based, human; settings: for percentage of tetramer positive cells among total CD8+ T cells compared to control: one donor, control co-culture without peptides; for specific CD8+ T cell expansion (immunogenicity): total of 6 healthy donors, FIG. 11A
Description: Priming of naïve CTLs. […] CD14+, CD4+ and CD8+ cells were purified by positive selection using magnetic beads (Miltenyi Biotec). While CD4+ and CD8+ T cells were cryopreserved until the experiment day, CD14+ fraction was cultured in the presence of IL-4 (50 ng/mL) and GM-CSF (10 ng/mL) at 10^6 cells/mL during 5 days to obtain moDCs. After this period of time, the moDCs were maturated with LPS and incubated with synthetic ER-derived peptides at a final concentration of 1 μg/mL for 2 hours.
Tetramer Staining. Cells were resuspended in PBS, stained with Live/Dead Aqua-405 nm (ThermoFisher) during 20 minutes at 4° C. and washed once. After that, cells were resuspended in PBS-1% BSA containing the mix of SA-coupled tetramers and incubated in the dark at room temperature during 20 minutes. Without further washing, surface antibodies were added in PBS-1% BSA and cells were incubated 20 minutes in the dark at 4° C. […] Finally, cells were washed twice and resuspended in FACS buffer for flow cytometry analysis.
Priming assays were thus performed to test the ability of identified peptides to expand specific cytotoxic T cells. […] After loading the moDCs with a mix of synthetic peptides, autologous co-culture was performed with CD4+ and CD8+ T cells. Finally, the expansion of specific CD8+ T cells was analysed by flow cytometry using two-colours tetramer staining. As a control of specific expansion, the co-culture was performed in the absence of peptides.
The same experiment was performed in order to evaluate the response in additional 5 donors. […] As a positive of expansions, mutated Melan-A peptide ([…]) were used.

[2] = test system: CD8+ T cells of LUAD patients; experiment: Tetramer staining of CD8+ T cells from LUAD patient samples and TILs; assay type: cell-based, human; settings: TILs expanded with peptide mix + IL-2 or IL-2 only
Description: Tetramer Staining. Cells were resuspended in PBS, stained with Live/Dead Aqua-405 nm (ThermoFisher) during 20 minutes at 4° C. and washed once. After that, cells were resuspended in PBS-1% BSA containing the mix of SA-coupled tetramers and incubated in the dark at room temperature during 20 minutes. Without further washing, surface antibodies were added in PBS-1% BSA and cells were incubated 20 minutes in the dark at 4° C. Surface antibodies were a combination of anti-CD3-BV650+ anti-CD8-PECy7 in combination with anti-CCR7-AF700+ anti-CD45RA-BUV395 when required. Finally, cells were washed twice and resuspended in FACS buffer for flow cytometry analysis.
Tissues and Blood samples. […]
Tumor infiltrating lymphocytes (TILs) cultures. […] Cells were feed/split as necessary during 15-20 days and cryopreserve or analyzed for tetramer staining.
In a first set of experiments tumor infiltrating lymphocytes (TILs) expanded with a mix of TE-derived peptides and Il-2, or only with Il-2, were analyzed by tetramer staining. […]
In a second cohort of 5 primary, untreated, LUAD tumor, juxta-tumor, tumor-draining lymph node and blood samples from LUAD cancer HLA-A2+ patients were analyzed. […]

[3] = target: T1, TE-exon fusion (JET / chimeric) …; experiment: multimer staining
[4] = target: T2, TE-exon fusion (JET / chimeric) …; experiment: multimer staining

Row | Molecule | specific CD8+ T cell expansion (immunogenicity) [1] | further results
1 | AILPKANTV | specific CD8+ T expansions | percentage of tetramer positive cells among total CD8+ T cells compared to control [1]: increase in at least one magnitude order
2 | AMDGKELSL | specific CD8+ T expansions | 
3 | FLGTRVTRV | specific CD8+ T expansions | 
4 | FLIVAEILI |  | percentage of tetramer positive cells among total CD8+ T cells compared to control [1]: increase in at least one magnitude order
5 | GLLNISHTA | specific CD8+ T expansions | 
6 | GLPSHVELA | specific CD8+ T expansions; also recorded: immunogenic | tetramer positive CD8+ T cells in TILs of LUAD patients [2]: TILs recognizing
7 | ILHSLVTGV | specific CD8+ T expansions | 
8 | ILSGYGPCV | specific CD8+ T expansions | 
9 | ILTASITSI | specific CD8+ T expansions | 
10 | LLDRFGYHV | specific CD8+ T expansions | 
11 | LLGETKVYV | specific CD8+ T expansions | percentage of tetramer positive cells among total CD8+ T cells compared to control [1]: increase in at least one magnitude order
12 | LLHLESFLV | specific CD8+ T expansions | 
13 | LLTSWHLYL | specific CD8+ T expansions | 
14 | MLMKTVWQA | specific CD8+ T expansions | 
15 | MLVTWELAL | specific CD8+ T expansions | 
16 | RLADHLSFC | specific CD8+ T expansions; also recorded: immunogenic | percentage of tetramer positive cells among total CD8+ T cells compared to control [1]: increase in at least one magnitude order
17 | RLLHLESFL | specific CD8+ T expansions | percentage of tetramer positive cells among total CD8+ T cells compared to control [1]: increase in at least one magnitude order
18 | RQAPGFHHA | specific CD8+ T expansions | 
19 | SLMQSGSPV | specific CD8+ T expansions | 
20 | VLLTNTIWL | specific CD8+ T expansions | 
21 | VLMWTMAHL | specific CD8+ T expansions | 
22 | YLPYFLKSL | specific CD8+ T expansions | 
23 | YLQGLPLPL | specific CD8+ T expansions | 
24 | YLWTTFFPL | specific CD8+ T expansions | percentage of tetramer positive cells among total CD8+ T cells compared to control [1]: increase in at least one magnitude order
25 | TCR number 4 (Table 4bis) (TCR) alpha TRAV35*01 TRAJ54*01 CDR3: CAGQLAGAQKLVF beta TRBV13*01 TRBJ2-5*01 CDR3: CASSPSRDGQETQYF |  | binding result [3]: recognises
26 | TCR number 1 (Table 4bis) (TCR) alpha TRAV41*01 TRAJ34*01 CDR3: CAVLLDNTDKLIF beta TRBV6-5*01 TRBJ-2*01 CDR3: CASSRLQGALELFF |  | binding result [4]: recognises
